Key:
[1] = system: AY-2 strain (wall-type arming yeast); assay: GFP releasing effect of available antifungal agents, wall-type arming yeast; format: cell-based, S. cerevisiae; settings: RPMIB medium protected for osmotic pressure, supernatant fluorescence, difference from control with no agent
Description: (§1) The cultured yeast cells in the logarithmic growth phase (AY-2 strain or AY-12 strain) were collected, and various agents were allowed to act on the yeast cells. Fluorescence intensity of the culture supernatant was measured by using Cytofluor 2300 Fluorometer (Millipore, excitation=480 nm, emission=530 nm). The fluorescence intensity under treatment with each of various agents was shown in terms of a difference in fluorescence intensity compared with that of a control in which no agent was added.
(§2) In order to ascertain whether or not the method of the present invention can be utilized for a screening of agents with a targeting site other than Kre6p, the GFP releasing effects in the AY-2 strain (wall-type arming yeast) and the AY-12 strain (membrane-type arming yeast) were compared under actions of available antifungal agents. The AY-2 strain cells and the AY-12 strain cells each cultured in a test tube were floated on a medium (RPMIB) protected for osmotic pressure, and each of the agents was allowed to act on the cells. After the culture, the fluorescence intensity of the supernatant was measured, and a difference from that of a control with no addition of the agent was calculated.

[2] = system: AY-12 strain (membrane-type arming yeast); assay: GFP releasing effect of available antifungal agents, membrane-type arming yeast; format: cell-based, S. cerevisiae; settings: RPMIB medium protected for osmotic pressure, supernatant fluorescence, difference from control with no agent
Description: as §1, §2

Compound	GFP releasing effect [1]	GFP releasing effect [2]
C[C@@H]1[C@H](O)[C@@H](C)/C=C/C=C/C=C/C=C/C=C/C=C/C=C/[C@H](O[C@@H]2O[C@H](C)[C@@H](O)[C@H](N)[C@@H]2O)C[C@@H]2O[C@](O)(C[C@@H](O)C[C@@H](O)[C@H](O)CC[C@@H](O)C[C@@H](O)CC(=O)O[C@H]1C)C[C@H](O)[C@H]2C(=O)O [Amphotericin B]	Slight releasing effect	Slight releasing effect
OC(Cn1cncn1)(Cn1cncn1)c1ccc(F)cc1F [Fluconazole]	Slight releasing effect	Slight releasing effect
CC[C@@H](C(=O)[C@@H](C)[C@@H](O)[C@H](C)[C@@H]1O[C@@H]([C@@H](CC)C(=O)O)CC[C@@H]1C)[C@H]1O[C@]2(C=C[C@@H](O)[C@]3(CC[C@@](C)([C@H]4CC[C@](O)(CC)[C@H](C)O4)O3)O2)[C@H](C)C[C@@H]1C [Salinomycin]	Slight releasing effect	Slight releasing effect
Aculeacin A	Marked GFP releasing effect	almost no releasing effect
Tunicamycin	Marked GFP releasing effect	almost no releasing effect

Reference: US20040091949A1, “Method of screening drug acting on cell wall” (priority 2000, published 2004)
